Here are results for 16 compounds from US10040781B2, “Tank-binding kinase inhibitor compounds” (Gilead Sciences, Inc., priority 2014, dated 2018).

The target in one assay is IKKε (Homo sapiens (Human), UniProt Q14164). As to the kind of experiment: IKKε TR-FRET enzymatic assay. Type of assay: biochemical. The settings on record: read-out: IKKe IC50. In general terms: Time-resolved FRET reads energy transfer from a long-lived donor to a nearby acceptor.
A further assay has as its target TBK1 (Homo sapiens (Human), UniProt Q9UHD2). As to the kind of experiment: TBK1 TR-FRET enzymatic assay.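 Further: phosphorylation of a biotinylated Ser/Thr peptide by purified full-length recombinant TBK1, read by TR-FRET after 240 min at 25 °C, IC50 is the geometric mean of at least four runs.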
The next assay has as its target hJAK2 (Homo sapiens (Human), UniProt O60674). Nature of the assay: hJAK2 LANCE TR-FRET enzymatic assay. Type of assay: biochemical. The settings on record: read-out: JAK2 IC50.
The mark [1] stands for this setting: TR-FRET, 2×Km ATP, geometric mean of minimum four determinations.

Like-named read-outs stand apart in the source and are kept apart here.

Chain of TBK1 (Q9UHD2 whole entry): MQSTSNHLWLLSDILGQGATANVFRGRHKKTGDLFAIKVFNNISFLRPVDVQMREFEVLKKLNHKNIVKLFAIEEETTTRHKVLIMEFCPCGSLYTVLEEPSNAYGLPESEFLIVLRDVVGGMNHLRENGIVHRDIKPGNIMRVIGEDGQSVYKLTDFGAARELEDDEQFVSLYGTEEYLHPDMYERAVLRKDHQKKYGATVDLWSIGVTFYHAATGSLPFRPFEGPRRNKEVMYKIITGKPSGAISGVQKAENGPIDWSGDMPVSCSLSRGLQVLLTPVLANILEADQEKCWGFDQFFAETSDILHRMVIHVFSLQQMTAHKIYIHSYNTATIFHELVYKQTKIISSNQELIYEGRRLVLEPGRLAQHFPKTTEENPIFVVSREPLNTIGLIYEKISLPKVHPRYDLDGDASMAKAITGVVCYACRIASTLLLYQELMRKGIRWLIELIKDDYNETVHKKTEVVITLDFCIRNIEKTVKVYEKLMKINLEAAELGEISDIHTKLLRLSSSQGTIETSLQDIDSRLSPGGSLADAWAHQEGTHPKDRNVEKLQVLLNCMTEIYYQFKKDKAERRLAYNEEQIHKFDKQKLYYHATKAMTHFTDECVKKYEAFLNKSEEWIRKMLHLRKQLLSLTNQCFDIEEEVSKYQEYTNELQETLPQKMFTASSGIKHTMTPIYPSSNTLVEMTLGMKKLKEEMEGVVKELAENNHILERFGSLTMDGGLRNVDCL
Chain of IKKε (Q14164 whole entry): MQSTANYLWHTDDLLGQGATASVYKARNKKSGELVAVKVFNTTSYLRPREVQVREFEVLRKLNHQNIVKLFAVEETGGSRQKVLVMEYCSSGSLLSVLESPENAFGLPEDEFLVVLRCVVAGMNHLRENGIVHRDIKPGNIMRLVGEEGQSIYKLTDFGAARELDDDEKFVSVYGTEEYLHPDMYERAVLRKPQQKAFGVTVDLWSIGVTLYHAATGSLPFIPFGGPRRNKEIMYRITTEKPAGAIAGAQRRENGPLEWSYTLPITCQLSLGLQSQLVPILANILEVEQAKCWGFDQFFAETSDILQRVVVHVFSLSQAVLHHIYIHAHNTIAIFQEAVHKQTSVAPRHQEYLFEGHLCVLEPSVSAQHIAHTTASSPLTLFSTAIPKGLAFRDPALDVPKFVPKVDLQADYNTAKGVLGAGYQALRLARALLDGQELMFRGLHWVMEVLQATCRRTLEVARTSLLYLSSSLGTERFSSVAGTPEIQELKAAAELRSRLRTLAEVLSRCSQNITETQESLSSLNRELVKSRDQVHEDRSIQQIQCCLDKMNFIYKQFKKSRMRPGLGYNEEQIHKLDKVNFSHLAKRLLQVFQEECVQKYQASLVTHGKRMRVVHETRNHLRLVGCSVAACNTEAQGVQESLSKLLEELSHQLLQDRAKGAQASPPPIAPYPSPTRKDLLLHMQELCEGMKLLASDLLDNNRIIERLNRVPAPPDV
Chain of hJAK2 (O60674 whole entry): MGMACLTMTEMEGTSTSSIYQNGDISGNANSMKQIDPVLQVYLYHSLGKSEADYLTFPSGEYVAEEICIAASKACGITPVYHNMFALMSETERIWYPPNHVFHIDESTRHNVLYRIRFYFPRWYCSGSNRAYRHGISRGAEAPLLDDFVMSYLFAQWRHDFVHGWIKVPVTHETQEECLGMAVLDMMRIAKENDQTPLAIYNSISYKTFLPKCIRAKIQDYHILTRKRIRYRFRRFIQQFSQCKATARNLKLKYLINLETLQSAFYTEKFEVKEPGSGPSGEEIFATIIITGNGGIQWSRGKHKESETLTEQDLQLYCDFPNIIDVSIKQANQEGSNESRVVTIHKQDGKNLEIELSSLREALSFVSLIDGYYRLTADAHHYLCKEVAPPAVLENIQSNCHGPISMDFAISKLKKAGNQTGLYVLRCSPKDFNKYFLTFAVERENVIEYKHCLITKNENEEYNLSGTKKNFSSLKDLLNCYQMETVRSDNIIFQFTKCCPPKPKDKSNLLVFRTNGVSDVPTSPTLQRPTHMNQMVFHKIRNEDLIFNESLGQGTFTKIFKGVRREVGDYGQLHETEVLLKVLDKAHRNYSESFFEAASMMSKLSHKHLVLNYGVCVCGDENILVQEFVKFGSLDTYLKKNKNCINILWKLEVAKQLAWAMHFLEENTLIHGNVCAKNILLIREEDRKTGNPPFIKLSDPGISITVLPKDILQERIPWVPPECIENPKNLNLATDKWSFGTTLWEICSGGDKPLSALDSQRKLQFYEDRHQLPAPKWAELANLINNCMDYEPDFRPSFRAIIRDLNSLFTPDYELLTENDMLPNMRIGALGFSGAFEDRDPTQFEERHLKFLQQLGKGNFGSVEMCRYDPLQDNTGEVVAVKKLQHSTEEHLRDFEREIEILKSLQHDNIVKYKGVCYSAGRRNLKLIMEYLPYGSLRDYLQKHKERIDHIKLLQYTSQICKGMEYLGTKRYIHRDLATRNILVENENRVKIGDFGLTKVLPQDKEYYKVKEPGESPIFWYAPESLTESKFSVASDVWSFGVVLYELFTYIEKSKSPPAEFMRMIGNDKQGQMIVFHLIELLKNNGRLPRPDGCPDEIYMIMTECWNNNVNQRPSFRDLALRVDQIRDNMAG

As to `N#Cc1cc(-c2ncnc(Nc3ccc(N4CCN(C5COC5)CC4)cc3)n2)ccc1O[C@H]1CCN(C(=O)[C@@H]2CCC(=O)N2)CC1(F)F` [Example 116, 2-(((S)-3,3-difluoro-1-((S)-5-oxopyrrolidine-2-carbonyl)piperidin-4-yl)oxy)-5-(4-((4-(4-(oxetan-3-yl)piperazin-1-yl)phenyl)amino)-1,3,5-triazin-2-yl)benzonitrile], the values for the IC50 at IKKε, at TBK1 and on hJAK2 were 0.001 µM, 0.002 µM and 0.146 µM, respectively.

On to `N#Cc1cc(-c2ncnc(Nc3ccc(N4CCN(C5COC5)CC4)cc3)n2)ccc1O[C@H]1CCN(C(=O)c2cncc(N)n2)C[C@H]1F` [Example 340, 2-(((3R,4S)-1-(6-aminopyrazine-2-carbonyl)-3-fluoropiperidin-4-yl)oxy)-5-(4-((4-(4-(oxetan-3-yl)piperazin-1-yl)phenyl)amino)-1,3,5-triazin-2-yl)benzonitrile], for which the IC50 at IKKε came to 0.009 µM; against TBK1, 0.004 µM; on hJAK2, 0.122 µM.

Turning to `C[C@H](O)C(=O)N1CC(Oc2ccc(-c3ncnc(Nc4ccc(N5CCN(C6COC6)CC5)cc4)n3)cc2C#N)C(F)(F)C1` (stereo partly drawn) [Example 198, 2-((4,4-difluoro-1-((S)-2-hydroxypropanoyl)pyrrolidin-3-yl)oxy)-5-(4-((4-(4-(oxetan-3-yl)piperazin-1-yl)phenyl)amino)-1,3,5-triazin-2-yl)benzonitrile], the figures for the IC50 on IKKε, against TBK1 and at hJAK2 were 0.068 µM, 0.01 µM and 0.265 µM, respectively.

Take `C[C@H](O)C(=O)N1CC[C@H](Oc2ccc(-c3ncnc(Nc4cn(C)nc4CO)n3)cc2C#N)[C@H](F)C1` [Example 564, 2-(((3R,4S)-3-fluoro-1-((S)-2-hydroxyproanoyl)piperidin-4-yl)oxy)-5-(4-((3-(hydroxymethyl)-1-methyl-1H-pyrazol-4-yl)amino)-1,3,5-triazin-2-yl)benzonitrile]: the IC50 at IKKε (setting [1]) is 0.109 µM; against TBK1, 0.092 µM; at hJAK2, no less than 1 µM.

Turning to `CC(C)(C)n1cc(Nc2ncnc(-c3ccc(O[C@H]4CCN(C(=O)CCO)C[C@H]4F)c(C#N)c3)n2)cn1` [Example 458, 5-(4-((1-(tert-butyl)-1H-pyrazol-4-yl)amino)-1,3,5-triazin-2-yl)-2-(((3R,4S)-3-fluoro-1-(3-hydroxypropanoyl)piperidin-4-yl)oxy)benzonitrile], the IC50 at IKKε (setting [1]) amounted to 0.061 µM; against TBK1, 0.023 µM; at hJAK2, 0.223 µM.

Consider `N#Cc1cc(-c2ncnc(Nc3ccc(N4CCN(C5COC5)CC4)cc3)n2)ccc1OCC1CCC(=O)N1` (stereo not drawn) [Example 594, 5-(4-((4-(4-(oxetan-3-yl)piperazin-1-yl)phenyl)amino)-1,3,5-triazin-2-yl)-2-((5-oxopyrrolidin-2-yl)methoxy)benzonitrile], for which the IC50 at IKKε (setting [1]) is 0.232 µM; on TBK1, 0.169 µM; on hJAK2, no less than 1 µM.

Turning to `C[C@H](O)C(=O)N1CC[C@@H](Oc2ccc(-c3ncnc(Nc4ccc(N5CCN(C6COC6)CC5)cc4)n3)cc2C#N)C(F)(F)C1` (single isomer, unassigned) [Example 156], the IC50 was determined as 0.023 µM at IKKε, 0.016 µM against TBK1 and 0.196 µM on hJAK2.

For `CC(C)NC(=O)c1ccc(Nc2ncnc(-c3ccc(O[C@@H]4CCN(C(=O)CO)C4)c(C#N)c3)n2)cc1` [Example 83, (R)-4-((4-(3-cyano-4-((1-(2-hydroxyacetyl)pyrrolidin-3-yl)oxy)phenyl)-1,3,5-triazin-2-yl)amino)-N-isopropylbenzamide], the IC50 was found to be 0.014 µM on IKKε, 0.008 µM on TBK1 and 0.604 µM at hJAK2.

Take `N#Cc1cc(-c2ncnc(Nc3ccc(N4CCN(C5COC5)CC4)cc3)n2)ccc1O[C@H]1CCN(C(=O)[C@@H]2COCCN2)C[C@H]1F` [Example 475, 2-(((3R,4S)-3-fluoro-1-((S)-morpholine-3-carbonyl)piperidin-4-yl)oxy)-5-(4-((4-(4-(oxetan-3-yl)piperazin-1-yl)phenyl)amino)-1,3,5-triazin-2-yl)benzonitrile]: the IC50 was 0.05 µM on IKKε (setting [1]), 0.023 µM at TBK1 and no less than 1 µM at hJAK2.

On to `Cn1nccc1Nc1ncnc(-c2ccc(OC3CCOCC3)c(C#N)c2)n1` [Example 73, 5-(4-((1-methyl-1H-pyrazol-5-yl)amino)-1,3,5-triazin-2-yl)-2-((tetrahydro-2H-pyran-4-yl)oxy)benzonitrile], for which the results for the IC50 at IKKε, on TBK1 and at hJAK2 were 0.202 µM, 0.09 µM and greater than 1 µM, respectively.

On to `CC(C)NC(=O)c1ccc(Nc2ncnc(-c3ccc(OC4CCOCC4)c(C#N)c3)n2)cc1` [Example 46, 4-((4-(3-cyano-4-((tetrahydro-2H-pyran-4-yl)oxy)phenyl)-1,3,5-triazin-2-yl)amino)-N-isopropylbenzamide], for which the IC50 on IKKε stood at 0.009 µM; against TBK1, 0.003 µM; on hJAK2, 0.67 µM.

With `N#Cc1cc(-c2ncnc(Nc3cccc(C(O)C(F)(F)F)c3)n2)ccc1OC1CCOCC1` (stereo not drawn) [Example 48, 2-((tetrahydro-2H-pyran-4-yl)oxy)-5-(4-((3-(2,2,2-trifluoro-1-hydroxyethyl)phenyl)amino)-1,3,5-triazin-2-yl)benzonitrile], the IC50 is 0.031 µM at IKKε, 0.003 µM on TBK1 and greater than 1 µM on hJAK2.

Consider `N#Cc1cc(-c2ncnc(Nc3ccc(N4CCN(C5COC5)CC4)cc3)n2)ccc1O[C@H]1CCN(C(=O)c2cn[nH]c2Cl)C[C@H]1F` [Example 136, 2-(((3R,4S)-1-(5-chloro-1H-pyrazole-4-carbonyl)-3-fluoropiperidin-4-yl)oxy)-5-(4-((4-(4-(oxetan-3-yl)piperazin-1-yl)phenyl)amino)-1,3,5-triazin-2-yl)benzonitrile], for which the IC50 at IKKε worked out at 0.073 µM; against TBK1, 0.046 µM; at hJAK2, 0.167 µM.

On to `C[C@@H]1C[C@@H](Oc2ccc(-c3ncnc(Nc4ccc(N5CCN(C6COC6)CC5)cc4)n3)cc2C#N)CCN1C(=O)[C@@H](C)O` [Example 184, 2-(((2R,4S)-1-((R)-2-hydroxypropanoyl)-2-methylpiperidin-4-yl)oxy)-5-(4-((4-(4-(oxetan-3-yl)piperazin-1-yl)phenyl)amino)-1,3,5-triazin-2-yl)benzonitrile], for which the IC50 on IKKε is 0.277 µM; on TBK1 it was 0.103 µM; on hJAK2, no less than 1 µM.

In the case of `C[C@H](O)C(=O)N1CC[C@H](Oc2ccc(-c3ncnc(Nc4ccc(N5CC6(CCOCC6)C5)cc4)n3)cc2C#N)[C@H](F)C1` [Example 313, 5-(4-((4-(7-oxa-2-azaspiro[3.5]nonan-2-yl)phenyl)amino)-1,3,5-triazin-2-yl)-2-(((3R,4S)-3-fluoro-1-((S)-2-hydroxypropanoyl)piperidin-4-yl)oxy)benzonitrile], the concentration for half-maximal inhibition (IC50) at IKKε stood at 0.002 µM; against TBK1, 0.004 µM; on hJAK2 it was 0.375 µM.

With `C[C@H](O)C(=O)N1CC[C@H](Oc2ccc(-c3ncnc(Nc4ccc(N5CCO[C@@H](CO)C5)cc4)n3)cc2C#N)[C@H](F)C1` [Example 231, 2-(((3R,4S)-3-fluoro-1-((S)-2-hydroxypropanoyl)piperidin-4-yl)oxy)-5-(4-((4-((R)-2-(hydroxymethyl)morpholino)phenyl)amino)-1,3,5-triazin-2-yl)benzonitrile], the IC50 turned out to be 0.001 µM at IKKε, 0.003 µM against TBK1 and 0.486 µM on hJAK2.

What is called IC50 is the midpoint of a concentration-inhibition curve.
